Where a name gives a salt, the structure may show the parent alone. Bounds are passed on as bounds.

The source of these data is US8592486B2, “Compounds for inflammation and immune-related uses” (Synta Pharmaceuticals Corp., priority 2005, dated 2013).

In one assay the test system is IL-2 production. Kind of assay: Inhibition of IL-2 production in PHA-activated Jurkat cells (ELISA). The assay is classed as cell-based, human. Particulars: Homo sapiens, Jurkat, 20 h, Jurkat cells, PHA 2.5 μg/mL, 20 hours, IL-2 ELISA; read-out: IC50 (inhibition of IL-2 production). How it is done: Jurkat cells were placed in a 96 well plate (0.5 million cells per well in 1% FBS medium) then a test compound of this invention was added at different concentrations. After 10 minutes, the cells were activated with PHA (final concentration 2.5 μg/mL) and incubated for 20 hours at 37° C. under CO2. The final volume was 200 μL. Following incubation, the cells were centrifuged and the supernatants collected and stored at −70° C. prior to assaying for IL-2 production. A commercial ELISA kit (IL-2 Eli-pair, Diaclone Research, Besancon, France) was used to detect production of IL-2, from which dose response curves were obtained. The IC50 value was calculated as the concentration at which 50% of maximum IL-2 production after stimulation was inhibited versus a non-stimulation control.
In general terms: ELISA stands for enzyme-linked immunosorbent assay.
In the case of `COCCOC(=O)c1ccc(Cl)c(-c2ccc(NC(=O)c3c(F)cccc3F)cc2)c1` [Compound 2, 6-Chloro-4′-(2,6-difluoro-benzoylamino)-biphenyl-3-(carboxylic acid 2-methoxyethyl ester)], the IC50 came to 9 nM.
On to `COC(=O)c1ccc(C)c(-c2ccc(NC(=O)c3c(F)cncc3F)cc2)c1` [Compound 4, 4′-[(3,5-Difluoro-pyridine-4-cabonyl)-amino]-6-methyl-biphenyl-3-carboxylic acid methyl ester], for which the IC50 is 2 nM.
Still for that read-out and setting: then `COC(=O)c1ccc(C)c(-c2ccc(NC(=O)c3ccncc3F)cc2)c1` [Compound 12, 4′-[(3-Fluoro-pyridine-4-carbonyl)-amino]-6-methyl-biphenyl-3-carboxylic acid methyl ester], with 5 nM.
Regarding `Cc1cc(-c2ccc(C)c(-c3ccc(NC(=O)c4c(F)cccc4F)cc3)c2)on1` [Compound 35, 2,6-Difluoro-N-[2′-methyl-5′-(3-methyl-isoxazole-5-yl)-biphenyl-4-yl]-benzamide], the IC50 worked out at 2 nM.
Still for that read-out and setting: for `Cc1cnccc1C(=O)Nc1ccc(-c2cc(-c3nccs3)ccc2C)cc1` [Compound 9, 3-Methyl-N-(2′-methyl-5′-thiazol-2-yl-biphenyl-4-yl)-isonicotinamide, HCl salt] the value was 7 nM; for `COc1ccc(-c2ccco2)cc1-c1ccc(NC(=O)c2ccncc2C)cc1` [Compound 47, 3-Methyl-N-[2′-methoxy-5′-(furan-2-yl)-biphenyl-4-yl]-isonicotinamide], 59 nM; for `Cc1cnccc1C(=O)Nc1ccc(-c2cc(-c3cnco3)ccc2C)cc1` [Compound 26, 3-Methyl-N-[5′-(oxazol-5-yl)-2′-methyl-biphenyl-4-yl]-isonicotinamide], 5 nM.
The same measure, in the same setting: for `Cc1ccc(-c2cccnc2)cc1-c1ccc(NC(=O)c2snnc2C)cc1` [Compound 21, 4-Methyl-[1,2,3]thiadazole-5-carboxylic acid [2′-methyl-5′-(pyridin-3-yl)-biphenyl-4-yl]-amide] the value was 6 nM; for `Cc1cnccc1C(=O)Nc1ccc(-c2cc(-c3ccno3)ccc2C)cc1` [Compound 32, 3-Methyl-N-[5′-(isoxazol-5-yl)-2′-methyl-biphenyl-4-yl]-isonicotinamide], 4 nM.
As for `Cc1ccc(-c2nccs2)cc1-c1ccc(NC(=O)c2snnc2C)cc1` [Compound 76, 4-Methyl-[1,2,3]thiadazole-5-carboxylic acid [2′-methyl-5′-(thiazol-2-yl)-biphenyl-4-yl]-amide], the IC50 is 7 nM.
On the same count and under the same terms, then `Cc1ccc(-c2nccs2)cc1-c1ccc(NC(=O)c2ccncc2F)cc1` [Compound 54, 3-Fluoro-N-[5′-(thiazol-2-yl)-2′-methyl-biphenyl-4-yl]-isonicotinamide], with 12 nM; and `Cc1ccc(-c2nccs2)cc1-c1ccc(NC(=O)c2c(F)cccc2F)cc1` [Compound 15, 2,6-Difluoro-N-(2′-methyl-5′-thiazol-2-yl-biphenyl-4-yl)-benzamide], with 2 nM.
On the same count and under the same terms, for `Cc1ccc(-c2nnc(N)s2)cc1-c1ccc(NC(=O)c2c(F)cccc2F)cc1` [Compound 62, 2,6-Difluoro-N-[2′-methyl-5′-(5-amino-[1,3,4]thiadiazol-2-yl)-biphenyl-4-yl]-benzamide] the value was 19 nM; for `Cc1ccc(-c2ccno2)cc1-c1ccc(NC(=O)c2snnc2C)cc1` [Compound 33, 4-Methyl-[1,2,3]thiadazole-5-carboxylic acid [2′-methyl-5′-(isoxazol-5-yl)-biphenyl-4-yl]-amide], 4 nM; for `Cc1cnccc1C(=O)Nc1ccc(-c2cc(-c3ncco3)ccc2N(C)C)cc1` [Compound 48, 3-Methyl-N-[5′-(oxazol-2-yl)-2′-(N,N-dimethylamino)-biphenyl-4-yl]-isonicotinamide], 320 nM.
Still for that read-out and setting: for `Cc1ccc(-c2cocn2)cc1-c1ccc(NC(=O)c2ccncc2F)cc1` [Compound 78, 3-Fluoro-N-[2′-methyl-5′-(oxazol-4-yl)-biphenyl-4-yl]-isonicotinamide] the value was 9 nM; for `COc1ccc(-c2ncco2)cc1-c1ccc(NC(=O)c2c(F)cncc2F)cc1` [Compound 51, 3,5-Difluoro-N-[5′-(oxazol-2-yl)-2′-methoxy-biphenyl-4-yl]-isonicotinamide], 11 nM.
As to `Cc1ccc(-c2nnco2)cc1-c1ccc(NC(=O)c2ccncc2F)cc1` [Compound 71, 3-Fluoro-N-[2′-methyl-5′-([1,3,4]oxadiazol-2-yl)-biphenyl-4-yl]-isonicotinamide], the IC50 stood at 6 nM.
Still for that read-out and setting: for `Cc1cnccc1C(=O)Nc1ccc(-c2cc(-c3nnco3)ccc2C)cc1` [Compound 70, 3-Methyl-N-[2′-methyl-5′-([1,3,4]oxadiazol-2-yl)-biphenyl-4-yl]-isonicotinamide] the value was 13 nM; for `Cc1csc(-c2ccc(C)c(-c3ccc(NC(=O)c4c(F)cccc4F)cc3)c2)n1` [Compound 38, 2,6-Difluoro-N-[2′-methyl-5′-(4-methyl-thiazol-2-yl)-biphenyl-4-yl]-benzamide], 3 nM.
On the same count and under the same terms, for `O=C(Nc1ccc(-c2cc(-c3ncco3)ccc2Cl)cc1)c1c(F)cccc1F` [Compound 31] the value was 6 nM; for `COc1ccc(-c2ncco2)cc1-c1ccc(NC(=O)c2ccncc2C)cc1` [Compound 50, 3-Methyl-N-[5′-(oxazol-2-yl)-2′-methoxy-biphenyl-4-yl]-isonicotinamide], 23 nM; for `Cc1ccc(-c2nncs2)cc1-c1ccc(NC(=O)c2c(F)cccc2F)cc1` [Compound 59, 2,6-Difluoro-N-[2′-methyl-5′-([1,3,4]thiadiazol-2-yl)-biphenyl-4-yl]-benzamide], 3 nM.
Consider `Cc1cc(-c2ccc(C)c(-c3ccc(NC(=O)c4c(F)cccc4F)cc3)c2)[nH]n1` [Compound 37, 2,6-Difluoro-N-[2′-methyl-5′-(3-methyl-1H-pyrazol-5-yl)-biphenyl-4-yl]-benzamide], for which the IC50 stood at 11 nM.
Same read-out and setting: then `Cc1cnccc1C(=O)Nc1ccc(-c2cc(-c3nnnn3C)ccc2C)cc1` [Compound 49, 3-Methyl-N-[2′-methyl-5′-(1-methyl-1H-tetrazol-5-yl)-biphenyl-4-yl]-isonicotinamide], with 12 nM; and `Cc1ccc(-c2ncnn2C)cc1-c1ccc(NC(=O)c2c(F)cccc2F)cc1` [Compound 66, 2,6-Difluoro-N-[2′-methyl-5′-(2-methyl-2H-[1,2,4]triazol-3-yl)-biphenyl-4-yl]-benzamide], with 8 nM.
The same measure, in the same setting: then `Cc1cnccc1C(=O)Nc1ccc(-c2cc(-c3cccnc3)ccc2C)cc1` [Compound 20, 3-Methyl-N-[5′-(pyridin-3-yl)-2′-methyl-biphenyl-4-yl]-isonicotinamide], with 8 nM; and `COc1ncc(Cl)cc1-c1ccc(NC(=O)c2ccncc2C)cc1` [Compound 18, 3-Methyl-N-[4-(5-chloro-2-methoxy-pyridin-3-yl)-phenyl]-isonicotinamide], with 9 nM; and `Cc1ccc(-c2nnco2)cc1-c1ccc(NC(=O)c2c(F)cccc2F)cc1` [Compound 69, 2,6-Difluoro-N-[2′-methyl-5′-([1,3,4]oxadiazol-2-yl)-biphenyl-4-yl]-benzamide], with 5 nM.
Still for that read-out and setting: then `Cc1ccc(-c2nccs2)cc1-c1ccc(NC(=O)c2c(F)cncc2F)cc1` [Compound 28, 3,5-Difluoro-N-[5′-(thiazol-2-yl)-2′-methyl-biphenyl-4-yl]-isonicotinamide], with 7 nM; and `COc1ccc(-c2ncco2)cc1-c1ccc(NC(=O)c2c(F)cccc2F)cc1` [Compound 13, 2,6-Difluoro-N-(2′-methoxy-5′-oxazol-2-yl-biphenyl-4-yl)-benzamide], with 6 nM; and `CSc1nnc(-c2ccc(C)c(-c3ccc(NC(=O)c4c(F)cncc4F)cc3)c2)n1C` [Compound 75, 3,5-Difluoro-N-[2′-methyl-5′-(4-methyl-5-methylsulfanyl-4H-[1,2,4]triazol-3-yl)-biphenyl-4-yl]-isonicotinamide], with more than 1000 nM.

Staying with this assay, now noted: Homo sapiens; Jurkat cells, PHA 2.5 μg/mL, 20 hours, IL-2 ELISA; read-out: IC50 (inhibition of IL-2 production).
As for `Cc1cnccc1C(=O)Nc1ccc(-c2cc(-c3cnco3)ccc2C)cc1` [Compound 29, 3-Methyl-N-[5′-(oxazol-5-yl)-2′-methyl-biphenyl-4-yl]-isonicotinamide, HCl salt], the IC50 amounted to 9 nM.
Turning to `Cc1cnccc1C(=O)Nc1ccc(-c2cc(-c3ccno3)ccc2C)cc1` [Compound 34, 3-Methyl-N-[5′-(isoxazol-5-yl)-2′-methyl-biphenyl-4-yl]-isonicotinamide, HCl salt], the IC50 turned out to be 11 nM.

For another assay, the system named is degranulation in RBL cells. Kind of assay: Inhibition of degranulation in RBL cells. Format: cell-based. Particulars: Rattus norvegicus, RBL, anti-DNP IgE, read-out: IC50 (concentration which inhibits 50% of degranulation in RBL cells). On the procedure:
The day before the assay was performed, RBL cells, that had been grown to confluence in a 96 well plate, were incubated at 37° C. for at least 2 hours. The medium was replaced in each well with 100 μL of fresh medium containing […] of anti-DNP IgE.
On the following day, the cells were washed once with PRS (2.6 mM glucose and 0.1% BSA) and 160 μL of PRS was added to each well. A test compound was added to a well in a 20 μL solution at 10× of the desired concentration and incubated for 20 to 40 minutes at 37° C. 20 μL of 10× mouse anti-IgE ([…]) was added. Maximum degranulation occurred between 15 to 40 minutes after addition of anti-IgE.
On to `COc1ccc(CCCOC(Cn2ccnc2)c2ccc(OC)cc2)cc1` (stereo not drawn) [SKF96365, reference compound], for which the IC50 was more than 20000 nM.

Staying with this assay, now noted: Rattus norvegicus, anti-DNP IgE, read-out: IC50 (concentration which inhibits 50% of degranulation in RBL cells).
As for `COCCOC(=O)c1ccc(Cl)c(-c2ccc(NC(=O)c3c(F)cccc3F)cc2)c1` [Compound 2, 6-Chloro-4′-(2,6-difluoro-benzoylamino)-biphenyl-3-(carboxylic acid 2-methoxyethyl ester)], the IC50 was determined as 4850 nM.
Take `COC(=O)c1ccc(C)c(-c2ccc(NC(=O)c3c(F)cncc3F)cc2)c1` [Compound 4, 4′-[(3,5-Difluoro-pyridine-4-cabonyl)-amino]-6-methyl-biphenyl-3-carboxylic acid methyl ester]: the IC50 was 1450 nM.
The same measure, in the same setting: for `COC(=O)c1ccc(C)c(-c2ccc(NC(=O)c3ccncc3F)cc2)c1` [Compound 12, 4′-[(3-Fluoro-pyridine-4-carbonyl)-amino]-6-methyl-biphenyl-3-carboxylic acid methyl ester] the value was 480 nM; for `Cc1cnccc1C(=O)Nc1ccc(-c2cc(-c3nccs3)ccc2C)cc1` [Compound 9, 3-Methyl-N-(2′-methyl-5′-thiazol-2-yl-biphenyl-4-yl)-isonicotinamide, HCl salt], 1410 nM.
